The record followed here is ChEMBL document CHEMBL1201862, “PubChem BioAssay data set” (2004).

SMILES strings stand for the structures. Calls of active or inactive are those of the source. Where only a bound is given, the exact number is not on record here.

Assay [1] concerns the target T1, Corticotropin-releasing factor receptor 2/Corticotropin-releasing factor-binding protein (Homo sapiens, UniProt P24387+Q13324).
T1 sequence (Q13324 whole entry): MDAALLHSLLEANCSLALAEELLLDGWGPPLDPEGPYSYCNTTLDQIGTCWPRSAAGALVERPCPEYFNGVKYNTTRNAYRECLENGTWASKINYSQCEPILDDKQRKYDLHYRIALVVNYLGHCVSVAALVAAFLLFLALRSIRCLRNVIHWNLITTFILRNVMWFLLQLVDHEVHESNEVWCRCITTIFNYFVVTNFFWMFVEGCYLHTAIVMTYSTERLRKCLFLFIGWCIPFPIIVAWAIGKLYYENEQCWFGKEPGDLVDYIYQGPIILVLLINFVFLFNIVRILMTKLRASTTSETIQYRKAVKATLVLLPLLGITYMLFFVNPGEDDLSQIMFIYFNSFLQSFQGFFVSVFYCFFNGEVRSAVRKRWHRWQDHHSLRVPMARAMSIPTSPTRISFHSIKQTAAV
T1 sequence (P24387 whole entry): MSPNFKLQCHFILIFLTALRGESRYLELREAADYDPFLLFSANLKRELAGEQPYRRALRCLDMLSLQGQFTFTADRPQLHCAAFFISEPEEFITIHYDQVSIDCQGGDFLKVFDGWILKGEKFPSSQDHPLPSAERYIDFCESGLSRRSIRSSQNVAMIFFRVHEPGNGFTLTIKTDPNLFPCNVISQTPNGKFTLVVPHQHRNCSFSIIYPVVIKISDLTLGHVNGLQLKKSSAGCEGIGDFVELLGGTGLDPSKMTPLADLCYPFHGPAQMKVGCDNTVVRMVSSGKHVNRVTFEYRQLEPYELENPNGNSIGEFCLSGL
The assay can be described thus: activators of CRF receptor 2 with binding protein – uHTS hits, confirmation (AID 602473). The class given is functional. The settings on record: read-out: EC50_Mean.

Assay [2] addresses T1, Corticotropin-releasing factor receptor 2/Corticotropin-releasing factor-binding protein. The assay can be described thus: Dose Response confirmation of uHTS hits for small molecule antagonists of the CRF-binding protein and CRF-R2 receptor complex. The class given is functional. The following applies: read-out: IC50_Mean.
The target of assay [3] is Disintegrin and metalloproteinase domain-containing protein 17 (Homo sapiens, UniProt P78536). The assay can be described thus: exosite inhibitors of ADAM17, dose response, biochemical (AID 743260).
The nature of assay [4]: inhibition of ADAM10 peptide cleavage – biochemical, FRET peptide substrate, recombinant human ADAM10, selectivity assay for ADAM17 exosite inhibitor project, dose response (AID 743259).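 Further: ADAM10 enzyme cleaving a FRET peptide substrate.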
Assay [5] is described as follows: toxicity toward immortalized ovarian surface epithelium – cell-based, plate reader, dry powder samples, cytotoxicity control for PAX8 inhibitor project, dose response (AID 743045). Format: functional.
Assay [6] can be described thus: OVCAR8 cell viability loss – plate reader, dry powder samples, PAX8 project, dose response (AID 743197). Format: functional, cell-based. The following applies: OVCAR-8.
The target of assay [7] is Paired box protein Pax-8 (Homo sapiens, UniProt Q06710). The assay is described as follows: PAX8 transcriptional activity inhibition in RMG-I – RMG-I cells, luciferase, cherry-pick, dose response (AID 687027).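 Further: luciferase reporter driven by Pax8 target thyroperoxidase promoter measured by SteadyGlo luminescence.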 Format: functional, cell-based.
A short description of assay [8]: A2780 cell killing – plate reader, dry powder samples, cytotoxicity control, dose response (AID 743046). Format: functional, cell-based.
The nature of assay [9]: OVCAR-3 cell viability loss – plate reader, dry powder samples, PAX8 inhibitor project, dose response (AID 743044). Format: functional, cell-based.
Assay [10] can be described thus: IGROV1 cell killing – plate reader, dry powder samples, PAX8 inhibitor project, dose response (AID 743043). Format: functional, cell-based. The settings on record: IGROV-1.
The target in assay [11] is ATP-dependent molecular chaperone HSP82 (Candida albicans (strain WO-1) (Yeast), UniProt C4YTQ8). The assay can be described thus: steroid-induced GRE reporter decrease in yeast – S. cerevisiae, luminescence, Hsp90 inhibitor project, dose response (AID 2400).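 Further: beta-galactosidase luminescence from glucocorticoid response element reporter as proxy for Hsp90 function; inhibitor potency where signal loss means Hsp90 inhibition.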 Format: functional, cell-based.
A short description of assay [12]: viability loss in Vero cells – cytotoxicity control for Vif-APOBEC3G degradation inhibitor project, dose response (AID 1117358). The class given is functional. The settings on record: Vero.
Assay [13] is described as follows: fluconazole-exposed Candida albicans growth modulators – fluorescence, retest, confirmation (AID 2467). The class given is functional, cell-based.
The nature of assay [14]: NIH-3T3 fibroblast cytotoxicity, dose response, cytotoxicity control, cell-based, fluorescence, Alamar Blue, secondary assay (AID 2327).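 Further: NIH-3T3 mouse fibroblasts cultured with fluconazole at 8 µg/mL.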 The class given is functional.
Assay [15] can be described thus: Trypanosoma cruzi growth suppression in host cells – NIH3T3 host cells, beta-gal luminescence, confirmation (AID 2044).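 Further: intracellular parasites grown in NIH/3T3 mouse fibroblasts as host cells; luminescent beta-galactosidase reporter signal from transgenic T. cruzi replicating inside host cells; inhibitors lower the luminescence signal.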 Format: functional, cell-based.
Assay [16] can be described thus: alpha-synuclein stem-loop luciferase translation blockers – H4 neuroglioma cells, luminescence, confirmation (AID 1988). The class given is functional, cell-based.
The nature of assay [17]: luciferase reporter signal suppression in cells – H4 neuroglioma cells, luminescence, dose response (AID 1990). Format: functional, cell-based.
Assay [18] can be described thus: NIH3T3 cell viability loss – ATP luminescence, mouse fibroblasts, counter-screen, dose response (AID 2010).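 Further: cells exposed to compound for about 90 hours before reading.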 Format: functional, cell-based.
Assay [19] has as its target T2, Serine/threonine-protein phosphatase (Candida dubliniensis (strain CD36 / CBS 7987 / NCPF 3949 / NRRLY-17841) (Yeast), UniProt B9W6M3).
T2 sequence (B9W6M3 whole entry): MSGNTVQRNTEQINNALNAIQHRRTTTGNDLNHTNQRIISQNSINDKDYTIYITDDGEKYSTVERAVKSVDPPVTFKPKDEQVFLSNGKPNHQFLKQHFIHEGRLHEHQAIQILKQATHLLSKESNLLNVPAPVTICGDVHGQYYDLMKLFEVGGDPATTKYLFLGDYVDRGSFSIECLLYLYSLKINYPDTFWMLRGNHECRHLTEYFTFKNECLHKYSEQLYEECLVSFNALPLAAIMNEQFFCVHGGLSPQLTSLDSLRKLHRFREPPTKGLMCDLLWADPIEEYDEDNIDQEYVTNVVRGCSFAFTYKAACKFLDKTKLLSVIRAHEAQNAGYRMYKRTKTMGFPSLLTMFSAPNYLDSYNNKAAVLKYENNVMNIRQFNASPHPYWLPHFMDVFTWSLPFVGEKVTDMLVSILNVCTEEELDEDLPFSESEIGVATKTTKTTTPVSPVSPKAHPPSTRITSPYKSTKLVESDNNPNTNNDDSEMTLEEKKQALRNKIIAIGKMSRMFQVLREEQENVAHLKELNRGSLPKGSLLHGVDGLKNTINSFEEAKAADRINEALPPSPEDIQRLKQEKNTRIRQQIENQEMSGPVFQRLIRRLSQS
The assay can be described thus: blockers of CaCl2-induced CDRE-lacZ signaling – S. cerevisiae, luminescence, secondary, dose response (AID 2388).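 Further: yeast reporter cells carrying a calcineurin-responsive lacZ construct stimulated with calcium chloride; luminescent beta-galactosidase reporter signal in whole cells rather than isolated phosphatase activity; potency for inhibition where a drop in reporter signal means calcineurin blockade.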 Format: functional, cell-based.

The nature of assay [20]: Luminescence Cell-Based Dose Response HTS to Identify Inhibitors of 5'UTR Stem-Loop Driven Prion Protein mRNA Translation in H4 Neuroglioblastoma Cells. [Related pubchem assays: 1827 (Project Summary), 1813 (Primary HTS)]. Format: functional.
The nature of assay [21]: growth inhibition of PfATP4-mutant resistant parasites – NITD609-resistant line, SYBR Green, dry powder, dose response (AID 1159571).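 Further: parasites synchronized at ring stage by sorbitol before testing.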 The class given is functional, cell-based.
Assay [22] is described as follows: toxicity to human HepG2 hepatoma cells – cell-based, plate reader, dry powder samples, cytotoxicity control, dose response (AID 1159569).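 Further: inhibitor potency with signal falling toward the positive control level.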 The class given is functional.
Assay [23] can be described thus: P. falciparum Dd2 growth inhibitors, dose response, SYBR Green, cherry-picked samples (AID 1159567). The class given is functional, cell-based.
A short description of assay [24]: growth inhibition of yeast DHODH-expressing 3D7 parasites – SYBR Green, dry powder samples, dose response (AID 1159570).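 Further: parasite growth measured after 72 hours of compound exposure.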 The class given is functional, cell-based.
A short description of assay [25]: Dd2 malaria parasite growth inhibition potency – SYBR Green, dry powder samples, dose response (AID 1159566).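 Further: potency for growth inhibition with lower SYBR green DNA signal.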 Format: functional, cell-based.

Sequence of Paired box protein Pax-8 (Q06710 whole entry): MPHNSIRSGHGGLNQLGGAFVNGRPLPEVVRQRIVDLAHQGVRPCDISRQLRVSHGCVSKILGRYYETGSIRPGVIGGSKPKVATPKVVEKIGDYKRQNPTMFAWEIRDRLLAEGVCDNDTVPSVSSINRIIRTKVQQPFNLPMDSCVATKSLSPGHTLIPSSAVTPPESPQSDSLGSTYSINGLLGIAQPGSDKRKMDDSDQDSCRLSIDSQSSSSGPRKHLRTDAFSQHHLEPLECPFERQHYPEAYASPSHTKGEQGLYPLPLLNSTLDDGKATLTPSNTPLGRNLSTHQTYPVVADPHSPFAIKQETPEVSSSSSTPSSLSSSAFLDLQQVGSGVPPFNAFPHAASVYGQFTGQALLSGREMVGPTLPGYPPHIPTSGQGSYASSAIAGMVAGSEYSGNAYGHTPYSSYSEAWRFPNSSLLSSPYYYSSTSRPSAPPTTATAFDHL
Sequence of Disintegrin and metalloproteinase domain-containing protein 17 (P78536 whole entry, the tested form may be a part): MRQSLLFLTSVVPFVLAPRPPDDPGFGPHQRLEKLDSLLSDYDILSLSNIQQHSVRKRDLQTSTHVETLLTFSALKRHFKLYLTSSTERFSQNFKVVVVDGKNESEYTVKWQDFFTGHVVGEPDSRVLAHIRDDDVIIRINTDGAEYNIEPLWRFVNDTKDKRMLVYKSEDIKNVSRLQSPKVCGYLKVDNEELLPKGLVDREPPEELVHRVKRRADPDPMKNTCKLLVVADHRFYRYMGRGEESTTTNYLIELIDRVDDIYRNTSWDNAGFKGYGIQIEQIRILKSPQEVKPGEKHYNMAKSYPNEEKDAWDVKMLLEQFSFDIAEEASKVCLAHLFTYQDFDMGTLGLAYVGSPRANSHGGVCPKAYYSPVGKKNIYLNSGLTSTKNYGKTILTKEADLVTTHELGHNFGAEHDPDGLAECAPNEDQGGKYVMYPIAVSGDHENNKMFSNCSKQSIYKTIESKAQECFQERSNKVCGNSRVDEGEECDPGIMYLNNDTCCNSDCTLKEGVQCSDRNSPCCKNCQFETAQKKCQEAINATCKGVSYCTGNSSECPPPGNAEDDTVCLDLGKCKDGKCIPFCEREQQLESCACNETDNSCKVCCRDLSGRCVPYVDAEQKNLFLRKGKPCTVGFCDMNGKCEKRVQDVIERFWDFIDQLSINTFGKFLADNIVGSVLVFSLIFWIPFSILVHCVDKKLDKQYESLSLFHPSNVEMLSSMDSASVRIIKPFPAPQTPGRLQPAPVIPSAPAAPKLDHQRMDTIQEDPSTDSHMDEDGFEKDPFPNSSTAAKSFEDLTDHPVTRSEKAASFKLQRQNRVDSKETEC
Sequence of ATP-dependent molecular chaperone HSP82 (C4YTQ8 whole entry): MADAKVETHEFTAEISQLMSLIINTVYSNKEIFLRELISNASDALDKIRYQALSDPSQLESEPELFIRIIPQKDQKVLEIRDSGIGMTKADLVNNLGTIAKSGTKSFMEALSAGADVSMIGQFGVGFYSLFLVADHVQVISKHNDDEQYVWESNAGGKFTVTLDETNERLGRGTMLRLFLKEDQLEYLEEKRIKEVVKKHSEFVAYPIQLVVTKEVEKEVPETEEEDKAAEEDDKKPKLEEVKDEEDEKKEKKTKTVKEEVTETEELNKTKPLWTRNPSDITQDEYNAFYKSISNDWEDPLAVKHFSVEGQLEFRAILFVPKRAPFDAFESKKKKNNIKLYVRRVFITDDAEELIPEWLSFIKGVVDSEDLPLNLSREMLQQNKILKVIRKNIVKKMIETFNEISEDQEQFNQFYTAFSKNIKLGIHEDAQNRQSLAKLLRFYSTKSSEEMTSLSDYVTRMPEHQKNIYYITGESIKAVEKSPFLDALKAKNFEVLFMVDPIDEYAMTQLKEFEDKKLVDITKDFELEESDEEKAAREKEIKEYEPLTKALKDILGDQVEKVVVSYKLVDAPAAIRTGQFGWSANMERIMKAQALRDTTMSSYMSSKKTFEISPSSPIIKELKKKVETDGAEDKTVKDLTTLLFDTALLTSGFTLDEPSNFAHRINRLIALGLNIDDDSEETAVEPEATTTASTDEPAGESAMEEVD

As to `Cc1cc2oc(=O)cc(-c3ccccc3)c2c(C)c1-c1ccc(O)cc1`, the EC50 in assay [1] is > 53 µM (inactive). For the same compound, the IC50 is > 47.1 µM (inactive) in [2], > 69.5 µM (inactive) in assay [3] and > 69.5 µM (inactive) in [4].
Regarding `C[C@@H]1CCCCO[C@@H](CN(C)Cc2ccc(Cl)c(Cl)c2)[C@H](C)CN([C@@H](C)CO)C(=O)c2cc(NC(=O)CCC(F)(F)F)ccc2O1`, the AC50 in [5] is 23.4 µM (active); in assay [6] it was 17.1 µM (active); in [7] it was 9.32 µM (active); in [8], 27.3 µM (active); in assay [9] it was 16.1 µM (active); in assay [10], 21.9 µM (active).
On to `CC(=O)O/N=C/c1c(N2CCOCC2)n(C)c2ccccc12`, for which the EC50 in assay [11] was > 160 µM (inactive); in [13], 0.145 µM (active); in assay [14], > 160 µM (inactive); in assay [15], 1.25 µM (active); in assay [16], 38.6 µM (active); in [17] it was > 120 µM (not active). Further, the EC50 in assay [18] is 4.45 µM (active); in [19] it was > 180 µM (inactive); in assay [20] it was > 120 µM (not active). In addition, the CC50 in assay [12] was > 40 µM (active).
Turning to `C[C@H]1CN([C@@H](C)CO)C(=O)c2ccccc2-c2ccccc2CO[C@H]1CN(C)Cc1ccc(-c2ccccc2)cc1`, the half-maximal activity concentration (AC50) in assay [21] was 1.19 µM (active); in assay [22] it was 22.2 µM (active); in assay [23] it was 1.59 µM (active); in assay [24] it was 3.92 µM (active); in [25] it was 1.11 µM (active).
The like results for `CC(C)(C)[S@+]([O-])N1Cc2cc(C(=O)NCc3ccccc3F)nc(-c3cccc(-c4ccncc4)c3)c2[C@@H]1CCO` were, in that order, 1.93 µM (active), 29.1 µM (active), 1.68 µM (active), 1.36 µM (active) and 1.42 µM (active).
